Measured values reported in patent US9604931B2, “Nuclear receptor binding agents” (GTx, Inc., priority 2007, dated 2017).

Key:
[1] = target: ER-α (Rattus norvegicus (Rat), UniProt P06211); assay: Transient transactivation assay in HEK-293 cells, ER-α and ERE-LUC; type: cell-based
Procedure: Human estrogen receptors (ER-α and ER-β) were cloned from prostate cDNA into a pCR3.1 plasmid vector backbone. PGC-1 was cloned into mammalian two hybrid vector pACT. ER-β H475 was mutated to alanine using site-directed mutagenesis. Sequencing was performed to determine the absence of any non specific mutations. SHP promoter (−572 to +10) (26) was cloned into pGL3 basic LUC reporter vector and human FXR was cloned into pCR3.1. HEK-293 cells were plated at 100,000 cells per well of a 24 well plate in […] (DMEM)+5% charcoal-stripped fetal bovine serum (csFBS). The cells were transfected using Lipofectamine (Invitrogen, Carlsbad, Calif.) with 0.25 μg ERE-LUC, 0.02 μg CMV-LUC (renilla luciferase) and 12.5 ng of rat ER-α or 25 ng rat ER-β. […] Luciferase assays were performed 48 hrs after transfection.
To determine if the selectivity in ER binding also translated into ER-β-selective activity, transient transactivation assays were performed in HEK-293 cells transfected with plasmids encoding ER-α or ER-β and ERE-LUC. The cells were treated with varying concentrations of the ligands and their EC50 values were determined.

[2] = target: ER-β (Rattus norvegicus (Rat), UniProt Q62986); assay: Transient transactivation assay in HEK-293 cells, ER-β and ERE-LUC; type: cell-based; details: for Function on ER-β in transactivation: HEK-293 cells
Procedure: Human estrogen receptors (ER-α and ER-β) were cloned from prostate cDNA into a pCR3.1 plasmid vector backbone. PGC-1 was cloned into mammalian two hybrid vector pACT. ER-β H475 was mutated to alanine using site-directed mutagenesis. Sequencing was performed to determine the absence of any non specific mutations. […] HEK-293 cells were plated at 100,000 cells per well of a 24 well plate in […] (DMEM)+5% charcoal-stripped fetal bovine serum (csFBS). […] Luciferase assays were performed 48 hrs after transfection.
The cells were treated with varying concentrations of the ligands and their EC50 values were determined.

[3] = tested on: PPAR-γ; assay: PPAR-γ transactivation (PPRE-LUC) in HEK-293 cells co-transfected with ER-β; type: cell-based
Procedure: FIG. 12 depicts the effect of ER-β ligand on PPAR-γ function through ligand binding domain (LBD). (A). HEK-293 cells were transfected with 0.25 μg PPRE-LUC, 5 ng CMV-renilla LUC and the indicated receptors (PPAR-γ and ER-β for the left panel and PPAR-α and ER-β for the right panel). The cells were treated 24 hrs after transfection with the indicated ligands and harvested 48 hrs after transfection and firefly luciferase activity was measured and normalized to renilla luciferase. (B). H475 in ER-β LBD is important for its function. H475 in ER-β LBD was mutated to alanine (A) using a site directed mutagenesis kit. Transactivation assay was performed as described in panel A in HEK-293 cells with a titration of ER-β ligands in wild type (WT) or ER-β H475A. (C). […] The cells were treated 24 hrs after transfection with the indicated ligands and harvested 48 hrs after transfection and firefly luciferase activity was measured and normalized to renilla luciferase. […] The cells were treated 24 hrs after transfection with the indicated ligands and harvested 48 hrs after transfection and firefly luciferase activity was measured and normalized to renilla luciferase. […] The cells were treated 24 hrs after transfection with the indicated ligands and harvested 48 hrs after transfection and firefly luciferase activity was measured and normalized to renilla luciferase. […]

[4] = target: ER-α ligand binding domain (LBD) (Homo sapiens (Human), UniProt P03372); assay: Ligand binding assay of 14m and 12u, ER-α (Example 22A)
Sequence of ER-α ligand binding domain (LBD) (P03372 whole entry, looked up, species assumed, the tested form may be a part): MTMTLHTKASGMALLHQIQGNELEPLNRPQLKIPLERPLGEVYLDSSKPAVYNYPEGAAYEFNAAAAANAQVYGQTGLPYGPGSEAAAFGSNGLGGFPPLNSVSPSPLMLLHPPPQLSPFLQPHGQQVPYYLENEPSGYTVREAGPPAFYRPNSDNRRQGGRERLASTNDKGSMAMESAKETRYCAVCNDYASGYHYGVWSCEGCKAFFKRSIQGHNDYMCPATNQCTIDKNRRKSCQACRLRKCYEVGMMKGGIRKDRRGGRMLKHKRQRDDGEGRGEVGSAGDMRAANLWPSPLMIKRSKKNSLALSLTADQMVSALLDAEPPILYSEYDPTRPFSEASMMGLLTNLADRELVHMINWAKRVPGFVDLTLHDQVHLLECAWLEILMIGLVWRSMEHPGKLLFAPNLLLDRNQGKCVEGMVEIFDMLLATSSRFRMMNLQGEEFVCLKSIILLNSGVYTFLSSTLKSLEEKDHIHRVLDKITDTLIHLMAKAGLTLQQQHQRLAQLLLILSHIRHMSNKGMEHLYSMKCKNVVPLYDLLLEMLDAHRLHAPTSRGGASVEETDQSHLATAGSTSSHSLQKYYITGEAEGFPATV

| Compound | Function on ER-α in transactivation [1] | EC50 [2] | Function on ER-β in transactivation [2] | Troglitazone-induced PPAR-γ activity [3] | Ki [4] |
| --- | --- | --- | --- | --- | --- |
| O=c1c2c(O)cc(O)cc2c(Br)cn1-c1ccc(O)cc1 [12u, 4-bromo-6,8-dihydroxy-2-(4-hydroxyphenyl)isoquinolin-1(2H)-one] | agonists | < 10 nM | agonists | partially inhibited | 40 nM |
| N#Cc1cn(-c2ccc(O)cc2)c(=O)c2c(O)cc(O)cc12 [14m, 6,8-dihydroxy-2-(4-hydroxyphenyl)-1-oxo-1,2-dihydroisoquinoline-4-carbonitrile] | agonists | < 10 nM | agonists | partially inhibited | 94 nM |
